We go through 18 compounds from patent publication US20240360137A1 (Novartis AG, priority 2023, published 2024).

Molecules are shown by their SMILES.

Common to all, as to assay: CDKi biochemical assay (TR-FRET, phosphorylation of S780 on RB1 peptide)
The target of assay [1] is CDK1/CyclinB1 (Homo sapiens, UniProt P06493). Particulars: CDK1/CyclinB1 10 pM, 1 mM ATP, 60 min at 25° C. Put shortly:
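CDK1/CyclinB1 (10 pM, Avi-tagged, insect-cell expressed) phosphorylated S780 of His-MBP-RB1[773-924] (200 nM) with 1 mM ATP in HEPES pH 7.5, 10 mM MgCl2, 1 mM DTT, 60 min at 25 °C. After EDTA quench, TR-FRET detection (Eu anti-pRB S780, SA-APC) for 3 h; apparent IC50 from percent activity versus log concentration.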

The target in assay [2] is CDK6/cyclinD3 (Homo sapiens, UniProt Q00534). Particulars: CDK6/cyclinD3 10 pM, 1 mM ATP, 60 min at 25° C. The gist of the method: (§1)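 Avi-tagged, biotinylated CDK4/cyclinD1 (20 pM) or CDK6/cyclinD3 (10 pM) phosphorylates 200 nM His-MBP-RB1[773-924] at S780 with 1 mM ATP in HEPES pH 7.5/MgCl2, 60 min, 25° C. After EDTA quench, Eu anti-pRB(S780)/SA-APC TR-FRET is read after 3 h. Apparent IC50 comes from % activity versus log concentration.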

For assay [3], the target named is CDK4/cyclinD1 (Homo sapiens, UniProt P11802). To be noted: CDK4/cyclinD1 20 pM, 1 mM ATP, 60 min at 25° C. Put shortly:
as §1

Assay [4] has as its target CDK2/CyclinE1 (Homo sapiens, UniProt P24941). To be noted: CDK2/CyclinE1 100 pM, 1 mM ATP, 60 min at 25° C. The gist of the method: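 CDK2/CyclinE1 (Avi-tag, 100 pM; CDK2 E. coli-expressed) phosphorylated His-MBP-RB1[773-924] (200 nM) at S780 with 1 mM ATP in HEPES pH 7.5/MgCl2/DTT, 60 min at 25° C. After EDTA quench, TR-FRET detection ran 3 h (Eu anti-p-RB S780, SA-APC). Apparent IC50 came from percent activity versus log concentration.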

With `O=C1N([C@@H]2CCC[C@@H](O)C2)c2nc(Nc3c[nH]nc3C#Cc3cccnc3)ncc2C12CC2` [Example 36, 7′-((1R,3R)-3-hydroxycyclohexyl)-2′-((3-(pyridin-3-ylethynyl)-1H-pyrazol-4-yl)amino)spiro[cyclopropane-1,5′-pyrrolo[2,3-d]pyrimidin]-6′(7′H)-one], the IC50 is 4.99 µM in assay [1], at least 10 µM in assay [2], at least 10 µM in assay [3] and 0.039 µM in assay [4].

Take `O=C1N([C@@H]2CCC[C@@H](O)C2)c2nc(Nc3c[nH]nc3-c3nnco3)ncc2C12CC2` [Example 83, 2′-((3-(1,3,4-oxadiazol-2-yl)-1H-pyrazol-4-yl)amino)-7′-((1R,3R)-3-hydroxycyclohexyl)spiro[cyclopropane-1,5′-pyrrolo[2,3-d]pyrimidin]-6′(7′H)-one]: the IC50 in assay [1] stood at 8.62 µM; in assay [2], 2.67 µM; in assay [3], 2.18 µM; in assay [4], 0.031 µM.

Turning to `Cc1cc(Nc2ncc3c(n2)N([C@@H]2CCC[C@@H](O)C2)C(=O)C32CC2)[nH]n1` [Example 5, 7′-((1R,3R)-3-hydroxycyclohexyl)-2′-((3-methyl-1H-pyrazol-5-yl)amino)spiro[cyclopropane-1,5′-pyrrolo[2,3-d]pyrimidin]-6′(7′H)-one], the IC50 in assay [1] is at least 10 µM; in assay [2], 5.73 µM; in assay [3] it was 6.69 µM; in assay [4], 1.12 µM.

As for `Cc1n[nH]cc1Nc1ncc2c(n1)N([C@H]1C[C@H](O)CC(C)(C)C1)C(=O)C21CC1` [Example 7, 7′-((1R,5R)-5-hydroxy-3,3-dimethylcyclohexyl)-2′-((3-methyl-1H-pyrazol-4-yl)amino)spiro[cyclopropane-1,5′-pyrrolo[2,3-d]pyrimidin]-6′(7′H)-one], the IC50 in assay [1] is 5.99 µM; in assay [2], 2.21 µM; in assay [3], 3.86 µM; in assay [4], 0.136 µM.

As to `O=C1N([C@@H]2CCC[C@@H](O)C2)c2nc(Nc3c[nH]nc3OCC3(F)CC3)ncc2C12CC2` [Example 45, 2′-((3-((1-fluorocyclopropyl)methoxy)-1H-pyrazol-4-yl)amino)-7′-((1R,3R)-3-hydroxycyclohexyl)spiro[cyclopropane-1,5′-pyrrolo[2,3-d]pyrimidin]-6′(7′H)-one], the IC50 was found to be 0.77 µM in assay [1], 3.5 µM in assay [2], 1.23 µM in assay [3] and 0.011 µM in assay [4].

As to `O=C1N([C@@H]2CCC[C@@H](O)C2)c2nc(Nc3c[nH]nc3C(F)F)ncc2C12CC2` [Example 3, 2′-((3-(difluoromethyl)-1H-pyrazol-4-yl)amino)-7′-((1R,3R)-3-hydroxycyclohexyl)spiro[cyclopropane-1,5′-pyrrolo[2,3-d]pyrimidin]-6′(7′H)-one], the IC50 in assay [1] was found to be 0.82 µM; in assay [2] it was 3.76 µM; in assay [3], 2.74 µM; in assay [4], 0.007 µM.

On to `O=C1N([C@@H]2CCC[C@@H](O)C2)c2nc(Nc3c[nH]nc3-c3ccccn3)ncc2C12CC2` [Example 60, 7′-((1R,3R)-3-hydroxycyclohexyl)-2′-((3-(pyridin-2-yl)-1H-pyrazol-4-yl)amino)spiro[cyclopropane-1,5′-pyrrolo[2,3-d]pyrimidin]-6′(7′H)-one], for which the IC50 in assay [1] was at least 10 µM; in assay [2], at least 10 µM; in assay [3], at least 10 µM; in assay [4] it was 0.162 µM.

As for `O=C1N([C@@H]2CCC[C@@H](O)C2)c2nc(Nc3c[nH]nc3O[C@H]3COC[C@@H]3F)ncc2C12CC2` [Example 25, 2′-((3-(((3S,4S)-4-fluorotetrahydrofuran-3-yl)oxy)-1H-pyrazol-4-yl)amino)-7′-((1R,3R)-3-hydroxycyclohexyl)spiro[cyclopropane-1,5′-pyrrolo[2,3-d]pyrimidin]-6′(7′H)-one], the IC50 in assay [1] is 2.44 µM; in assay [2], at least 10 µM; in assay [3], at least 10 µM; in assay [4], 0.024 µM.

With `CN1C[C@H](Oc2n[nH]cc2Nc2ncc3c(n2)N([C@@H]2CCC[C@@H](O)C2)C(=O)C32CC2)[C@@H](F)C1` [Example 51, 2′-((3-(((3S,4S)-4-fluoro-1-methylpyrrolidin-3-yl)oxy)-1H-pyrazol-4-yl)amino)-7′-((1R,3R)-3-hydroxycyclohexyl)spiro[cyclopropane-1,5′-pyrrolo[2,3-d]pyrimidin]-6′(7′H)-one], the IC50 in assay [1] is at least 10 µM; in assay [2], at least 10 µM; in assay [3], at least 10 µM; in assay [4], 0.119 µM.

For the compound `O=C1N([C@@H]2CCC[C@@H](O)C2)c2nc(Nc3c[nH]nc3OCC3COCC3(F)F)ncc2C12CC2` (stereo partly drawn) [Example 76, 2′-((3-((4,4-difluorotetrahydrofuran-3-yl)methoxy)-1H-pyrazol-4-yl)amino)-7′-((1R,3R)-3-hydroxycyclohexyl)spiro[cyclopropane-1,5′-pyrrolo[2,3-d]pyrimidin]-6′(7′H)-one], the IC50 in assay [1] is 3.29 µM; in assay [2] it was at least 10 µM; in assay [3], 7.27 µM; in assay [4], 0.032 µM.

Turning to `O=C1N([C@@H]2CCC[C@@H](O)C2)c2nc(Nc3c[nH]nc3C3CC3(F)F)ncc2C12CC2` (single isomer, unassigned) [Example 32], the half-maximal inhibitory concentration (IC50) is 0.34 µM in assay [1], 4.8 µM in assay [2], 2.76 µM in assay [3] and 0.006 µM in assay [4].

`O=C1N([C@@H]2CCC[C@@H](O)C2)c2nc(Nc3c[nH]nc3C3CCOC3)ncc2C12CC2` (stereo partly drawn) [Example 8, 7′-((1R,3R)-3-hydroxycyclohexyl)-2′-((3-(tetrahydrofuran-3-yl)-1H-pyrazol-4-yl)amino)spiro[cyclopropane-1,5′-pyrrolo[2,3-d]pyrimidin]-6′(7′H)-one]: the IC50 was at least 10 µM in assay [1], at least 10 µM in assay [2], at least 10 µM in assay [3] and 0.234 µM in assay [4].

Regarding `Cn1ncc(-c2n[nH]cc2Nc2ncc3c(n2)N([C@@H]2CCC[C@@H](O)C2)C(=O)C32CC2)c1Cl` [Example 57, 2′-((5′-chloro-1′-methyl-1H,1′H-[3,4′-bipyrazol]-4-yl)amino)-7-((1R,3R)-3-hydroxycyclohexyl)spiro[cyclopropane-1,5′-pyrrolo[2,3-d]pyrimidin]-6′(7′H)-one], the IC50 in assay [1] was 2.04 µM; in assay [2] it was at least 10 µM; in assay [3], 7.9 µM; in assay [4], 0.015 µM.

As for `N#CC1(COc2n[nH]cc2Nc2ncc3c(n2)N([C@@H]2CCC[C@@H](O)C2)C(=O)C32CC2)CC1` [Example 67, 1-(((4-((7′-((1R,3R)-3-hydroxycyclohexyl)-6′-oxo-6′,7′-dihydrospiro[cyclopropane-1,5′-pyrrolo[2,3-d]pyrimidin]-2′-yl)amino)-1H-pyrazol-3-yl)oxy)methyl)cyclopropane-1-carbonitrile], the IC50 in assay [1] was 4.13 µM; in assay [2], at least 10 µM; in assay [3] it was 6.91 µM; in assay [4] it was 0.023 µM.

Take `Cc1c(-c2n[nH]cc2Nc2ncc3c(n2)N([C@@H]2CCC[C@@H](O)C2)C(=O)C32CC2)cnn1C(F)F` [Example 62]: the IC50 in assay [1] is 4.23 µM; in assay [2], 1.83 µM; in assay [3] it was 2.3 µM; in assay [4] it was 0.017 µM.

For the compound `O=C1N([C@@H]2CCC[C@@H](O)C2)c2nc(Nc3c[nH]nc3OCC3(F)COC3)ncc2C12CC2` [Example 48, 2′-((3-((3-fluorooxetan-3-yl)methoxy)-1H-pyrazol-4-yl)amino)-7′-((1R,3R)-3-hydroxycyclohexyl)spiro[cyclopropane-1,5′-pyrrolo[2,3-d]pyrimidin]-6′(7′H)-one], the IC50 in assay [1] is 3.25 µM; in assay [2] it was at least 10 µM; in assay [3], 1.54 µM; in assay [4], 0.022 µM.

Consider `COCc1n[nH]cc1Nc1ncc2c(n1)N([C@@H]1CCC[C@@H](O)C1)C(=O)C21CC1` [Example 21, 7′-((1R,3R)-3-hydroxycyclohexyl)-2′-((3-(methoxymethyl)-1H-pyrazol-4-yl)amino)spiro[cyclopropane-1,5′-pyrrolo[2,3-d]pyrimidin]-6′(7′H)-one], for which the 50% inhibitory concentration (IC50) was 2.5 µM in assay [1], 4.46 µM in assay [2], 2.26 µM in assay [3] and 0.017 µM in assay [4].

On to `O=C1N([C@@H]2CCC[C@@H](O)C2)c2nc(Nc3c[nH]nc3OC3CCC3)ncc2C12CC2` [Example 40, 2′-((3-cyclobutoxy-1H-pyrazol-4-yl)amino)-7′-((1R,3R)-3-hydroxycyclohexyl)spiro[cyclopropane-1,5′-pyrrolo[2,3-d]pyrimidin]-6′(7′H)-one], for which the IC50 in assay [1] was 2.89 µM; in assay [2], at least 10 µM; in assay [3], at least 10 µM; in assay [4], 0.026 µM.

In general, IC50 refers to the point on the concentration scale where inhibition reaches its midpoint. A higher IC50 goes with weaker potency.
